Assay results reported in ChEMBL document CHEMBL5584338, “Design, Synthesis, and Biological Evaluation of 5-Amino-4-fluoro-1H-benzo[d]imidazole-6-carboxamide Derivatives as Novel and Potential MEK/RAF Complex Inhibitors Based on the "Clamp" Strategy” (J Med Chem, 2024).
pIC50: −log10 of the molar value.

Assays:
[1] = tested on: HCT-116; experiment: Antiproliferative activity against human HCT-116 cells harboring KRAS G13D mutant at 1 uM incubated for 72 hrs by CCK8 assay relative to control; format: functional
[2] = molecular target: Serine/threonine-protein kinase B-raf (Homo sapiens, UniProt P15056); experiment: Inhibition of BRAF (unknown origin) assessed as remaining activity at 0.1 uM relative to control
[3] = tested on: MIA PaCa-2; experiment: Antiproliferative activity against human MIA PaCa-2 cells harboring KRAS G12C mutant incubated for 72 hrs by CCK8 assay; format: functional, cell-based; conditions: MIA PaCa-2, 72 h
[4] = molecular target: Dual specificity mitogen-activated protein kinase kinase 1 (Homo sapiens, UniProt Q02750); experiment: Inhibition of MEK1 (unknown origin) assessed as remaining activity at 0.1 uM relative to control
[5] = tested on: HCT-116; experiment: Antiproliferative activity against human HCT-116 cells harboring KRAS G13D mutant incubated for 72 hrs by CCK8 assay; format: functional, cell-based; conditions: HCT-116, 72 h
[6] = tested on: MIA PaCa-2; experiment: Antiproliferative activity against human MIA PaCa-2 cells harboring KRAS G12C mutant at 0.1 uM incubated for 72 hrs by CCK8 assay relative to control; format: functional

Dual specificity mitogen-activated protein kinase kinase 1, sequence (Q02750 whole entry): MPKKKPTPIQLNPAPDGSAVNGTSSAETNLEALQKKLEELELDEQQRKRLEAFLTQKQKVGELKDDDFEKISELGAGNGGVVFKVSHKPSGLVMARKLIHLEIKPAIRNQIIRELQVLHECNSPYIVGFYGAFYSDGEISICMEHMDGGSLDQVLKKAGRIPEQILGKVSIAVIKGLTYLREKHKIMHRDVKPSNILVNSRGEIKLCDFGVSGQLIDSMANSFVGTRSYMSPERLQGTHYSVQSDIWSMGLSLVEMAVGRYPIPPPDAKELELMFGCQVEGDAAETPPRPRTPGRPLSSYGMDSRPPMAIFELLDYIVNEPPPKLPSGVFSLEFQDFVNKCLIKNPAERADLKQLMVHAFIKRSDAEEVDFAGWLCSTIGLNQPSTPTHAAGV
Serine/threonine-protein kinase B-raf, sequence (P15056 whole entry): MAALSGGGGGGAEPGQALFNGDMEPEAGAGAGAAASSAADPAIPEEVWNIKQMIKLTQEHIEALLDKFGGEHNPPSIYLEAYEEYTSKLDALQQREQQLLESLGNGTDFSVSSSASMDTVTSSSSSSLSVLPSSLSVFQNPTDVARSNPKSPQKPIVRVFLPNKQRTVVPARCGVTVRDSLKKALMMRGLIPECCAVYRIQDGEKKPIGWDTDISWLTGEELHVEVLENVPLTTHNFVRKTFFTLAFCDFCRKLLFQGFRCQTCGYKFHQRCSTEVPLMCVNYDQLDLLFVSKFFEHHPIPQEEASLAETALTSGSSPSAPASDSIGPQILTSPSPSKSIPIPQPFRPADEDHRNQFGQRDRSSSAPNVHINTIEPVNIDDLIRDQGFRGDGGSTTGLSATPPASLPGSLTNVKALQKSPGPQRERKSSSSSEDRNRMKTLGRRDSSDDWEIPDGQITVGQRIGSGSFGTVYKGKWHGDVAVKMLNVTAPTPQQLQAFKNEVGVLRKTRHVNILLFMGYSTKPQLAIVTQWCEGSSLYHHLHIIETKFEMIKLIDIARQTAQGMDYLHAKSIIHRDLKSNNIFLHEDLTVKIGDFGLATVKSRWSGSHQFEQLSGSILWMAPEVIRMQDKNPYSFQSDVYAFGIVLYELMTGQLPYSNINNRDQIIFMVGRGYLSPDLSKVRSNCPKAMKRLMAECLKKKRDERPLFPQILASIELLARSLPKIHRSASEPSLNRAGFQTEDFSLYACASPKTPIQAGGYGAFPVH

Row | Compound | inhibition at 1 µM [1] [%] | Activity [2] [%] | pIC50 [3] | Activity [4] [%] | pIC50 [5] | inhibition at 0.1 µM [6] [%]
1 | CCNS(=O)(=O)Nc1cc(F)cc(Cn2cnc3c(F)c(Nc4ccc(C5CC5)cc4F)c(C(=O)NOCCO)cc32)c1 | 56.7 | 5 | 7.49 | 59 | 6.85 | 76.5
2 | CC(C)CNS(=O)(=O)Nc1cccc(Cn2cnc3c(F)c(Nc4ccc(C5CC5)cc4F)c(C(=O)NOCCO)cc32)c1 | 60.2 | 5 | 7.32 | 80 | 6.37 | 55.8
3 | CNS(=O)(=O)Nc1ccc(F)c(Cn2cnc3c(F)c(Nc4ccc(C5CC5)cc4F)c(C(=O)NOCCO)cc32)c1 | 12 | 21 | – | 79 | – | 7.1
4 | CCNS(=O)(=O)Nc1cc(Cn2cnc3c(F)c(Nc4ccc(C5CC5)cc4F)c(C(=O)NOCCO)cc32)ccc1F | 17.5 | – | – | – | – | 34.5
5 | CC(C)NS(=O)(=O)Nc1cccc(Cn2cnc3c(F)c(Nc4ccc(C5CC5)cc4F)c(C(=O)NOCCO)cc32)c1 | 59.3 | 4 | 6.82 | 55 | 6.88 | 65.9
6 | CNS(=O)(=O)Nc1cccc(Cn2cnc3c(F)c(Nc4ccc(C)cc4F)c(C(=O)NOCCO)cc32)c1F | 74.8 | 3 | 6.06 | 58 | 6.16 | 57.7
7 | CCNS(=O)(=O)Nc1cccc(Cn2cnc3c(F)c(Nc4ccc(I)cc4F)c(C(=O)NOCCO)cc32)c1F | 69.1 | 1 | 7.37 | 8 | 6.69 | 65.3
8 | CCNS(=O)(=O)Nc1cccc(Cn2cnc3c(F)c(Nc4ccc(C)cc4F)c(C(=O)NOCCO)cc32)c1F | 57.6 | 4 | 6.66 | 54 | 6.34 | 55.7
9 | CCNS(=O)(=O)Nc1cccc(Cn2cnc3c(F)c(Nc4ccc(C5CC5)cc4F)c(C(=O)NOCCO)cc32)c1Cl | 49.6 | 3 | 7.51 | 20 | 6.14 | 76
10 | CNS(=O)(=O)Nc1cccc(Cn2cnc3c(F)c(Nc4ccc(C5CC5)cc4F)c(C(=O)NOCCO)cc32)c1Cl | 55.6 | 3 | 6.77 | 19 | 6.20 | 62.6
11 | CCNS(=O)(=O)Nc1cccc(Cn2cnc3c(F)c(Nc4ccc(Br)cc4F)c(C(=O)NOCCO)cc32)c1Cl | 39.8 | – | – | – | – | 21.9
12 | CNS(=O)(=O)Nc1cccc(Cn2cnc3c(F)c(F)c(C(=O)NOCCO)cc32)c1F | 14.8 | – | – | – | – | 24.7
13 | CCNS(=O)(=O)Nc1cccc(Cn2cnc3c(F)c(Nc4ccc(Br)cc4F)c(C(=O)NOCCO)cc32)c1F | 65.1 | 2 | 6.44 | 20 | 6.82 | 22.8
14 | CNS(=O)(=O)N1CCCC(Cn2cnc3c(F)c(Nc4ccc(C5CC5)cc4F)c(C(=O)NOCCO)cc32)C1 (stereo unspecified) | -9.58 | – | – | – | – | 31.1
15 | O=C(NOCCO)c1cc2c(ncn2Cc2cccc(NC(=O)C3CCCCC3)c2)c(F)c1Nc1ccc(C2CC2)cc1F | 13.7 | 35 | – | 88 | – | 11.5
16 | CNS(=O)(=O)Nc1cccc(Cn2cnc3c(F)c(Nc4ccc(I)cc4F)c(C(=O)NOCCO)cc32)c1Cl | 66.7 | 1 | 7.22 | 5 | 6.45 | 60.8
17 | CCNS(=O)(=O)Nc1cccc(Cn2cnc3c(F)c(Nc4ccc(C5CCC5)cc4F)c(C(=O)NOCCO)cc32)c1F | 56.2 | 4 | 6.03 | 84 | – | 29

Row | Compound | inhibition at 1 µM [1] [%] | Activity [2] [%] | pIC50 [3] | Activity [4] [%] | pIC50 [5] | inhibition at 0.1 µM [6] [%]
18 | CNS(=O)(=O)Nc1cc(F)cc(Cn2cnc3c(F)c(Nc4ccc(C5CC5)cc4F)c(C(=O)NOCCO)cc32)c1 | 57.4 | 5 | 7.33 | 53 | 6.76 | 65.8
19 | O=C(NOCCO)c1cc2c(ncn2Cc2cccc(NC(=O)C3CC3)c2)c(F)c1Nc1ccc(C2CC2)cc1F | 19.3 | – | 6.20 | – | – | 45
20 | CS(=O)(=O)Nc1cccc(Cn2cnc3c(F)c(Nc4ccc(C5CC5)cc4F)c(C(=O)NOCCO)cc32)c1 | 46.2 | 6 | 6.86 | 75 | – | 50.5
21 | CNS(=O)(=O)Nc1cccc(Cn2cnc3c(F)c(Nc4ccc(C5CCCC5)cc4F)c(C(=O)NOCCO)cc32)c1F | 24.8 | 13 | – | 98 | – | 12.1
22 | CNS(=O)(=O)N1CCC(Cn2cnc3c(F)c(Nc4ccc(C5CC5)cc4F)c(C(=O)NOCCO)cc32)C1 (stereo unspecified) | 2.43 | – | – | – | – | -13.4
23 | CNS(=O)(=O)Nc1cccc(Cn2cnc3c(F)c(Nc4ccc(Br)cc4F)c(C(=O)NOCCO)cc32)c1F | 60.3 | 3 | 6.65 | 16 | 6.95 | 35.7
24 | CCC(=O)Nc1cccc(Cn2cnc3c(F)c(Nc4ccc(C5CC5)cc4F)c(C(=O)NOCCO)cc32)c1 | 17.8 | 75 | 6.01 | 89 | – | 18
25 | O=C(NOCCO)c1cc2c(ncn2Cc2cccc(NC(=O)C3CCCC3)c2)c(F)c1Nc1ccc(C2CC2)cc1F | 4.21 | 71 | – | 91 | – | -29.7
26 | CCNS(=O)(=O)Nc1cccc(Cn2cnc3c(F)c(Nc4ccc(I)cc4F)c(C(=O)NOCCO)cc32)c1Cl | 61.4 | 0 | 6.90 | 9 | 6.42 | 43.1
27 | CNS(=O)(=O)Nc1cc(Cn2cnc3c(F)c(Nc4ccc(C5CC5)cc4F)c(C(=O)NOCCO)cc32)ccc1F | 35.2 | 16 | 6.21 | 85 | – | 31.6
28 | CCNS(=O)(=O)Nc1ccc(F)c(Cn2cnc3c(F)c(Nc4ccc(C5CC5)cc4F)c(C(=O)NOCCO)cc32)c1 | 17.5 | – | – | – | – | -38.8
29 | CNS(=O)(=O)Nc1cccc(Cn2cnc3c(F)c(Nc4ccc(Br)cc4F)c(C(=O)NOCCO)cc32)c1Cl | 47.8 | 3 | – | 15 | – | 28.4
30 | O=C(NOCCO)c1cc2c(ncn2Cc2cccc(NC(=O)C3CCC3)c2)c(F)c1Nc1ccc(C2CC2)cc1F | 25.1 | 32 | 5.89 | 76 | – | 38.9
31 | Cn1cnc2c(F)c(Nc3ccc(Br)cc3F)c(C(=O)NOCCO)cc21 [BINIMETINIB] | 41.4 | – | 6.74 | – | 5.70 | 58.8
32 | CCNS(=O)(=O)Nc1cccc(Cn2cnc3c(F)c(Nc4ccc(C5CCCC5)cc4F)c(C(=O)NOCCO)cc32)c1F | 26.9 | – | – | – | – | 6.88
33 | CCNS(=O)(=O)Nc1cccc(Cn2cnc3c(F)c(F)c(C(=O)NOCCO)cc32)c1F | 10.8 | – | – | – | – | 6.04
